{"source": "PubChem BioAssay (NCI)", "assay_in_all_cases": "DTP human tumour cell line panel, 48 h", "key": {"ACHN renal": {"test_system": "ACHN renal"}, "CAKI-1 renal": {"test_system": "CAKI-1 renal"}, "U251 CNS": {"test_system": "U251 CNS"}, "RPMI-8226 leukemia": {"test_system": "RPMI-8226 leukemia"}, "NCI-H23 lung": {"test_system": "NCI-H23 lung"}, "SF-295 CNS": {"test_system": "SF-295 CNS"}, "SF-539 CNS": {"test_system": "SF-539 CNS"}, "K-562 leukemia": {"test_system": "K-562 leukemia"}, "DU-145 prostate": {"test_system": "DU-145 prostate"}, "SK-MEL-5 melanoma": {"test_system": "SK-MEL-5 melanoma"}, "COLO 205 colon": {"test_system": "COLO 205 colon"}, "NCI-H522 lung": {"test_system": "NCI-H522 lung"}, "PC-3 prostate": {"test_system": "PC-3 prostate"}, "SN12C renal": {"test_system": "SN12C renal"}, "OVCAR-5 ovarian": {"test_system": "OVCAR-5 ovarian"}, "HCT-116 colon": {"test_system": "HCT-116 colon"}, "HS 578T breast": {"test_system": "HS 578T breast"}, "OVCAR-3 ovarian": {"test_system": "OVCAR-3 ovarian"}, "786-0 renal": {"test_system": "786-0 renal"}, "BT-549 breast": {"test_system": "BT-549 breast"}, "TK-10 renal": {"test_system": "TK-10 renal"}, "HOP-92 NSCLC": {"test_system": "HOP-92 NSCLC"}, "EKVX NSCLC": {"test_system": "EKVX NSCLC"}, "MCF7 breast": {"test_system": "MCF7 breast"}, "T-47D breast": {"test_system": "T-47D breast"}, "HCT-15 colon": {"test_system": "HCT-15 colon"}, "UACC-62 melanoma": {"test_system": "UACC-62 melanoma"}, "SNB-19 CNS": {"test_system": "SNB-19 CNS"}, "A549 NSCLC": {"test_system": "A549 NSCLC"}, "LOX IMVI melanoma": {"test_system": "LOX IMVI melanoma"}, "M14 melanoma": {"test_system": "M14 melanoma"}, "UACC-257 melanoma": {"test_system": "UACC-257 melanoma"}, "NCI/ADR-RES ovarian": {"test_system": "NCI/ADR-RES ovarian"}, "MDA-MB-435": {"test_system": "MDA-MB-435"}, "HL-60(TB) leukemia": {"test_system": "HL-60(TB) leukemia"}, "SF-268 CNS": {"test_system": "SF-268 CNS"}, "UO-31 renal": {"test_system": "UO-31 renal"}, "IGROV1 ovarian": {"test_system": "IGROV1 ovarian"}, "SW-620 colon": {"test_system": "SW-620 colon"}, "KM12 colon": {"test_system": "KM12 colon"}, "NCI-H460 lung": {"test_system": "NCI-H460 lung"}, "SK-OV-3 ovarian": {"test_system": "SK-OV-3 ovarian"}, "SR leukemia": {"test_system": "SR leukemia"}, "OVCAR-8 ovarian": {"test_system": "OVCAR-8 ovarian"}, "HOP-62 NSCLC": {"test_system": "HOP-62 NSCLC"}, "SK-MEL-2 melanoma": {"test_system": "SK-MEL-2 melanoma"}, "MDA-MB-231 breast": {"test_system": "MDA-MB-231 breast"}}, "note": "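A five-concentration, 48-hour dose response in 96-well plates underlies each endpoint, interpolated linearly between surrounding concentrations. The concentration for 50% growth inhibition is given as GI50. TGI: total growth inhibition.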", "data": [{"smiles": "NC(N)=N/N=C/c1c(-c2ccccn2)nc2sc(Cl)cn12", "values": [{"measurement": "GI50", "setting": "ACHN renal", "value": 7.49, "unit": "µM"}, {"measurement": "TGI", "setting": "ACHN renal", "value": 15.3, "unit": "µM"}, {"measurement": "GI50", "setting": "CAKI-1 renal", "value": 8.59, "unit": "µM"}, {"measurement": "TGI", "setting": "CAKI-1 renal", "value": 15.6, "unit": "µM"}, {"measurement": "GI50", "setting": "U251 CNS", "value": 8.28, "unit": "µM"}, {"measurement": "TGI", "setting": "U251 CNS", "value": 15.1, "unit": "µM"}, {"measurement": "GI50", "setting": "RPMI-8226 leukemia", "value": 11.5, "unit": "µM"}, {"measurement": "TGI", "setting": "RPMI-8226 leukemia", "value": 29, "unit": "µM"}, {"measurement": "GI50", "setting": "NCI-H23 lung", "value": 11.5, "unit": "µM"}, {"measurement": "TGI", "setting": "NCI-H23 lung", "value": 19.1, "unit": "µM"}, {"measurement": "GI50", "setting": "SF-295 CNS", "value": 6.93, "unit": "µM"}, {"measurement": "TGI", "setting": "SF-295 CNS", "value": 13.4, "unit": "µM"}, {"measurement": "GI50", "setting": "SF-539 CNS", "value": 1.54, "unit": "µM"}, {"measurement": "TGI", "setting": "SF-539 CNS", "value": 3.49, "unit": "µM"}, {"measurement": "GI50", "setting": "K-562 leukemia", "value": 3.4, "unit": "µM"}, {"measurement": "TGI", "setting": "K-562 leukemia", "value": 13.8, "unit": "µM"}, {"measurement": "GI50", "setting": "DU-145 prostate", "value": 7.68, "unit": "µM"}, {"measurement": "TGI", "setting": "DU-145 prostate", "value": 14.4, "unit": "µM"}, {"measurement": "GI50", "setting": "SK-MEL-5 melanoma", "value": 8.47, "unit": "µM"}, {"measurement": "TGI", "setting": "SK-MEL-5 melanoma", "value": 15.4, "unit": "µM"}, {"measurement": "GI50", "setting": "COLO 205 colon", "value": 6.26, "unit": "µM"}, {"measurement": "TGI", "setting": "COLO 205 colon", "value": 17, "unit": "µM"}, {"measurement": "GI50", "setting": "NCI-H522 lung", "value": 7.86, "unit": "µM"}, {"measurement": "TGI", "setting": "NCI-H522 lung", "value": 15.3, "unit": "µM"}, {"measurement": "GI50", "setting": "PC-3 prostate", "value": 10.9, "unit": "µM"}, {"measurement": "TGI", "setting": "PC-3 prostate", "value": 22, "unit": "µM"}, {"measurement": "GI50", "setting": "SN12C renal", "value": 6.84, "unit": "µM"}, {"measurement": "TGI", "setting": "SN12C renal", "value": 13.3, "unit": "µM"}, {"measurement": "GI50", "setting": "OVCAR-5 ovarian", "value": 6.3, "unit": "µM"}, {"measurement": "TGI", "setting": "OVCAR-5 ovarian", "value": 12.6, "unit": "µM"}, {"measurement": "GI50", "setting": "HCT-116 colon", "value": 8.36, "unit": "µM"}, {"measurement": "TGI", "setting": "HCT-116 colon", "value": 17.3, "unit": "µM"}, {"measurement": "GI50", "setting": "HS 578T breast", "value": 8.91, "unit": "µM"}, {"measurement": "TGI", "setting": "HS 578T breast", "value": 17.3, "unit": "µM"}, {"measurement": "GI50", "setting": "OVCAR-3 ovarian", "value": 7.55, "unit": "µM"}, {"measurement": "TGI", "setting": "OVCAR-3 ovarian", "value": 14.3, "unit": "µM"}, {"measurement": "GI50", "setting": "786-0 renal", "value": 8.45, "unit": "µM"}, {"measurement": "TGI", "setting": "786-0 renal", "value": 16.4, "unit": "µM"}, {"measurement": "GI50", "setting": "BT-549 breast", "value": 8.25, "unit": "µM"}, {"measurement": "TGI", "setting": "BT-549 breast", "value": 15.2, "unit": "µM"}, {"measurement": "GI50", "setting": "TK-10 renal", "value": 8.13, "unit": "µM"}, {"measurement": "TGI", "setting": "TK-10 renal", "value": 15.1, "unit": "µM"}, {"measurement": "GI50", "setting": "HOP-92 NSCLC", "value": 10, "unit": "µM"}, {"measurement": "TGI", "setting": "HOP-92 NSCLC", "value": 21.3, "unit": "µM"}, {"measurement": "GI50", "setting": "EKVX NSCLC", "value": 8.95, "unit": "µM"}, {"measurement": "TGI", "setting": "EKVX NSCLC", "value": 16.1, "unit": "µM"}, {"measurement": "GI50", "setting": "MCF7 breast", "value": 13.2, "unit": "µM"}, {"measurement": "TGI", "setting": "MCF7 breast", "value": 50, "unit": "µM"}, {"measurement": "GI50", "setting": "T-47D breast", "value": 8.58, "unit": "µM"}, {"measurement": "TGI", "setting": "T-47D breast", "value": 23.3, "unit": "µM"}, {"measurement": "GI50", "setting": "HCT-15 colon", "value": 8.15, "unit": "µM"}, {"measurement": "TGI", "setting": "HCT-15 colon", "value": 14.9, "unit": "µM"}, {"measurement": "GI50", "setting": "UACC-62 melanoma", "value": 8.01, "unit": "µM"}, {"measurement": "TGI", "setting": "UACC-62 melanoma", "value": 14.9, "unit": "µM"}, {"measurement": "GI50", "setting": "SNB-19 CNS", "value": 7.97, "unit": "µM"}, {"measurement": "TGI", "setting": "SNB-19 CNS", "value": 16, "unit": "µM"}, {"measurement": "GI50", "setting": "A549 NSCLC", "value": 6.87, "unit": "µM"}, {"measurement": "TGI", "setting": "A549 NSCLC", "value": 14, "unit": "µM"}, {"measurement": "GI50", "setting": "LOX IMVI melanoma", "value": 7.26, "unit": "µM"}, {"measurement": "TGI", "setting": "LOX IMVI melanoma", "value": 14, "unit": "µM"}, {"measurement": "GI50", "setting": "M14 melanoma", "value": 7.6, "unit": "µM"}, {"measurement": "TGI", "setting": "M14 melanoma", "value": 15.9, "unit": "µM"}, {"measurement": "GI50", "setting": "UACC-257 melanoma", "value": 7.45, "unit": "µM"}, {"measurement": "TGI", "setting": "UACC-257 melanoma", "value": 14.8, "unit": "µM"}, {"measurement": "GI50", "setting": "NCI/ADR-RES ovarian", "value": 13.6, "unit": "µM"}, {"measurement": "TGI", "setting": "NCI/ADR-RES ovarian", "value": 35.6, "unit": "µM"}, {"measurement": "GI50", "setting": "MDA-MB-435", "value": 7.56, "unit": "µM"}, {"measurement": "TGI", "setting": "MDA-MB-435", "value": 14.2, "unit": "µM"}, {"measurement": "GI50", "setting": "HL-60(TB) leukemia", "value": 11, "unit": "µM"}, {"measurement": "TGI", "setting": "HL-60(TB) leukemia", "value": 25.8, "unit": "µM"}, {"measurement": "GI50", "setting": "SF-268 CNS", "value": 8.04, "unit": "µM"}, {"measurement": "TGI", "setting": "SF-268 CNS", "value": 17.8, "unit": "µM"}, {"measurement": "GI50", "setting": "UO-31 renal", "value": 7.85, "unit": "µM"}, {"measurement": "TGI", "setting": "UO-31 renal", "value": 14.8, "unit": "µM"}, {"measurement": "GI50", "setting": "IGROV1 ovarian", "value": 6.21, "unit": "µM"}, {"measurement": "TGI", "setting": "IGROV1 ovarian", "value": 13.7, "unit": "µM"}, {"measurement": "GI50", "setting": "SW-620 colon", "value": 5.29, "unit": "µM"}, {"measurement": "TGI", "setting": "SW-620 colon", "value": 11.8, "unit": "µM"}, {"measurement": "GI50", "setting": "KM12 colon", "value": 8.05, "unit": "µM"}, {"measurement": "TGI", "setting": "KM12 colon", "value": 15.1, "unit": "µM"}, {"measurement": "GI50", "setting": "NCI-H460 lung", "value": 10.2, "unit": "µM"}, {"measurement": "TGI", "setting": "NCI-H460 lung", "value": 50, "unit": "µM"}, {"measurement": "GI50", "setting": "SK-OV-3 ovarian", "value": 9.1, "unit": "µM"}, {"measurement": "TGI", "setting": "SK-OV-3 ovarian", "value": 17.9, "unit": "µM"}, {"measurement": "GI50", "setting": "SR leukemia", "value": 0.845, "unit": "µM"}, {"measurement": "TGI", "setting": "SR leukemia", "value": 3.05, "unit": "µM"}, {"measurement": "GI50", "setting": "OVCAR-8 ovarian", "value": 6.32, "unit": "µM"}, {"measurement": "TGI", "setting": "OVCAR-8 ovarian", "value": 13.5, "unit": "µM"}, {"measurement": "GI50", "setting": "HOP-62 NSCLC", "value": 9.58, "unit": "µM"}, {"measurement": "TGI", "setting": "HOP-62 NSCLC", "value": 17.5, "unit": "µM"}, {"measurement": "GI50", "setting": "SK-MEL-2 melanoma", "value": 7.93, "unit": "µM"}, {"measurement": "TGI", "setting": "SK-MEL-2 melanoma", "value": 15.1, "unit": "µM"}, {"measurement": "GI50", "setting": "MDA-MB-231 breast", "value": 5.64, "unit": "µM"}, {"measurement": "TGI", "setting": "MDA-MB-231 breast", "value": 11.7, "unit": "µM"}]}]}
